Test results as given in patent US20180153995A1, “USE OF ANTIMICROBIAL POLYMERS FOR RE-SENSITIZATION OF MICROORGANISMS UPON EMERGENCE OF RESISTANCE TO ANTI-MICROBIAL AGENTS” (Technion Research & Development Foundation Limited, priority 2008, published 2018).
Values after ≈ are worked out from the molar mass of the structure shown. Like-named read-outs stand apart in the source and are kept apart here.

Columns and labels:
[1] = tested on: E. coli N281 (L22 mutation); assay type: cell-based, Escherichia coli; conditions: E. coli N281 L22 mutation
MRSA 15903 = test: Sub-MIC time-kill curves (CFU counts); assay type: cell-based, Staphylococcus aureus
Protocol: At the specified time points of incubation (37° C. under shaking), cultures were subjected to serial 10-fold dilutions (up to 10^6) by adding 50 μl of sample to 450 μl saline (0.85% NaCl). Cell counts were determined using the drop plate method (three 20-μl drops onto LB-agar plates). Plates were incubated at 37° C. and colonies were counted for the calculation after incubation for 24 hours.

S. aureus ATCC 29213 = conditions: as determined by the Clinical and Laboratory Standard Institute; cited from earlier work
E. coli CI14213 = assay type: cell-based, Escherichia coli
In short: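 Bacteria (10^5 per ml) are mixed into culture medium holding serially 2-fold diluted polymer, or into plain medium as control. Plates incubate 24 hours at 37 °C. Optical density at 620 nm then gives the inhibition of proliferation, from which MICs are taken.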

MRSA 15918 = test: microbe, parasite or virus in culture; assay type: cell-based, Staphylococcus aureus; conditions: Staphylococcus aureus, MRSA; read-out: MIC
Protocol: (§1) MICs were determined by microdilution susceptibility testing in 96-well plates (by Nunc) using inocula of 10^5 bacteria per ml. Cell populations were evaluated by optical density measurements at 620 nm and were calibrated against a set of standards. Hundred (100) μl of a bacterial suspension were added to 100 μl of culture medium (control) or to 100 μl of culture medium containing various polymer concentrations in 2-fold serial dilutions. Inhibition of proliferation was determined by optical density measurements at 620 nm after an incubation period of 24 hours at 37° C.
(§2) The fractionary inhibitory (FIC) concentration index for combinations of two antimicrobial agents was calculated as follows: FIC index=FICA+FICB=A/MICA+B/MICB where A and B are the MIC values of agent A and agent B in the combination, MICA and MICB are the MICs of agent A and agent B alone, and FICA and FICB are the FICs of agent A and agent B.
(§3) The FIC indexes were interpreted as follows: less than 0.5 indicates a clear re-sensitizing effect; from 0.5 to 4 indicates a marginal or null re-sensitizing effect; and over 4 indicates antagonism.

ATCC 29213 = test: microbe, parasite or virus in culture; assay type: cell-based, Staphylococcus aureus; conditions: Staphylococcus aureus, ATCC29213; read-out: MIC
Protocol: as §1, §2, §3

ATCC 25923 = test: microbe, parasite or virus in culture; assay type: cell-based, Staphylococcus aureus; conditions: Staphylococcus aureus, ATCC25923; read-out: MIC
Protocol: as §1

E. coli G11a1 = test: Antibiotic MIC with or without sub-MIC polymer (Tables 20, 21); assay type: cell-based, Escherichia coli
Protocol: as §1

SMILES: CC[C@H]1OC(=O)[C@H](C)[C@@H](O[C@H]2C[C@@](C)(OC)[C@@H](O)[C@H](C)O2)[C@H](C)[C@@H](O[C@@H]2O[C@H](C)C[C@H](N(C)C)[C@H]2O)[C@](C)(O)C[C@@H](C)C(=O)[C@H](C)[C@@H](O)[C@]1(C)O [Erythromycin, erythromycin]
- Antibiotic MIC ([1]; +¼ MIC C12K(NC8K)5NH2): 512 µg/mL
- Antibiotic MIC ([1]; +¼ MIC C12K(NC8K)7NH2): >512-512 μg/ml
- Antibiotic MIC ([1]; +½ MIC C12K(NC8K)5NH2): 16 to 32 µg/mL
- Antibiotic MIC ([1]; +⅓ MIC C12K(NC8K)7NH2): 512 µg/mL
- Antibiotic MIC ([1]; no OAK, Table 18): >512 µg/mL
- Antibiotic MIC ([1]; no OAK, Table 19): >512 µg/mL

SMILES: Cc1onc(-c2ccccc2)c1C(=O)N[C@@H]1C(=O)N2[C@@H]1SC(C)(C)[C@@H]2C(=O)O [Oxacillin, oxacillin]
- reduction of bacterial counts compared to the most active single agent (MRSA 15903; 24 hours, oxacillin 0.78 μM + NC12(KNC12K)2NH2 2.1 μM): 4.7 log10 CFU/ml
- surviving organisms below the starting inoculum (MRSA 15903; oxacillin 0.78 μM + NC12(KNC12K)2NH2 2.1 μM): 0.76 log10 CFU/ml
- bactericidal activity, agent alone (MRSA 15903; sub-MIC time-kill, single agent): no bactericidal activity
- Oxacillin's MIC per CLSI M100-S15 (S. aureus ATCC 29213): 0.125 to 0.5 µg/mL
- activity of oxacillin alone (E. coli CI14213; E. coli CI14213, 24 hours incubation): inactive
- concentration up to which E. coli is insensitive to oxacillin (E. coli CI14213; E. coli, oxacillin alone): > 512 µg/mL
- MIC (MRSA 15918): 64 µg/mL
- MIC (ATCC 29213): 0.09 µg/mL
- MIC (ATCC 25923): 0.17 µg/mL (≈ 0.423 µM)

SMILES: CC1(C)S[C@@H]2[C@H](NC(=O)Cc3ccccc3)C(=O)N2[C@H]1C(=O)O [Penicillin G, penicillin G]
- Antibiotic MIC, None (E. coli G11a1; antibiotic alone (Table 20)): 512 µg/mL
- Antibiotic MIC, None (E. coli G11a1; antibiotic alone (Table 21)): 512 µg/mL
